US10011814B2, “Salt formulations for the fermentation of marine microorganisms” (Triphase Research and Development I Corp., priority 2006, dated 2018)

System: Salinispora tropica NPS021184
Assay: Production of Salinosporamide A and analogs in shake flask or tube culture; titers by HPLC of EtOAc extract
Conditions: for % Increase (+) or % decrease (−) of maximum titer: Ex.1 Table 1; for % Increase (+) or % decrease (−) of max titer: Ex.1 Table 2; for % increase/decrease of titer / relative % change (of % relative to Sal A): Ex.2 Table 3; for % Increase (+) or % decrease (−) of average max titer: Ex.2 Table 4; for relative decrease in production (relative to Salinosporamide A): 208 μg/L CoCl2·6H2O in seed medium, 52 μg/L in production medium vs no cobalt in seed
Procedure: Seed cultures were prepared by inoculating frozen stock of Salinispora tropica NPS021184 into seed medium.
(§1) The first seed cultures (either 10 mL medium in a 50-mL tube or 100 mL medium in a 500-mL Erlenmeyer flask) were incubated for 3 to 4 days before inoculating into the second seed media with the same composition as the first seed cultures. The second seed cultures (100 mL medium in a 500-mL Erlenmeyer flask) were incubated for two days before inoculating into the production medium (100 mL medium in a 500-mL Erlenmeyer flask).
The chemically defined salt formulation included: […]
(§2) 3.5 mL of the fermentation culture was mixed with equal volume of EtOAc in an extraction tube to extract the various metabolites from the production culture. The mixture was shaken on a shaker for one hr. An aliquot of the extract (1 mL) was removed and dried under a stream of nitrogen. The dried extract was stored at −20° C. freezer before HPLC analysis. The dried extract was resuspended in 320 μL DMSO and injected into HPLC using the 00TF14 method for analysis.
The production of Salinosporamide A, NPI-0047 and NPI-2065 was monitored by Agilent HP1100 HPLC using an ACE C-18 reversed-phase column (4.6×150 mm), and solvent system consisting of water (0.01% TFA) as solvent A and acetonitrile (0.01% TFA) as solvent B. The elution was started at 100% solvent A for 1 min, 100% solvent A to 35% solvent A gradient in 7 min, held at 35% solvent A for 11 min, 35% solvent A to 100% solvent B in 8 min and held at 100% solvent B for 9 min at a flow rate of 1.5 mL/min with the detector wavelength set at 210 nm and column temperature 35° C.
The first seed cultures (either 10 mL medium in a 50-mL tube or 100 ml medium in a 500-ml Erlenmeyer flask) were incubated for 3 to 4 days before inoculating into the second seed media with the same composition as the first seed cultures. The second seed cultures (100 mL medium in a 500-mL Erlenmeyer flask) were incubated for two days before inoculating into the production medium (100 mL medium in a 500-mL Erlenmeyer flask).
as §1, with “in a 50-ml tube or” for “in a 50-mL tube or”, “inoculating into production medium” for “inoculating into the production medium”
as §2, with “shaken” for “shaken on a shaker”, “1” for “one”, “[…]” for “μL”, “TFS7” for “00TF14”
The production of Salinosporamide A, NPI-0047 and NPI-2065 was monitored by Agilent HP1100 HPLC using an ACE C-18 reversed-phase column (4.6×150 mm), and isocratic solvent system consisting of 67% water (0.01% TFA) and 33% acetonitrile (0.01% TFA). The flow rate was 1.5 mL/min for 15 min with the detector wavelength set at 210 nm and column temperature 35° C.
3.5 mL of the fermentation culture was mixed with equal volume of EtOAc in an extraction tube to extract the various metabolites from the production culture. The mixture was shaken on the shaker for 1 hr. An aliquot of the extract (1 mL) was removed and dried under a stream of nitrogen. The dried extract was stored at −20° C. freezer before HPLC analysis. The dried extract was resuspended in 320 μL DMSO and injected into HPLC using the TFS7 method for analysis. […]

[1] = 104 μg/L CoCl2·6H2O in production medium vs no addition
[2] = 1.04 mg/L CoCl2·6H2O in production medium vs no addition
[3] = 10.4 mg/L CoCl2·6H2O in production medium vs no addition
[4] = 2.6 μg/L CoCl2·6H2O in production medium vs control
[5] = 5.2 μg/L CoCl2·6H2O in production medium vs control
[6] = 6.5 μg/L CoCl2·6H2O in production medium vs control
[7] = 13 μg/L CoCl2·6H2O in production medium vs control
[8] = 26 μg/L CoCl2·6H2O in production medium vs control
[9] = 52 μg/L CoCl2·6H2O in production medium vs control
[10] = 104 μg/L CoCl2·6H2O in production medium vs control
[11] = 208 μg/L CoCl2·6H2O in production medium vs control
[12] = 416 μg/L CoCl2·6H2O in production medium vs control
[13] = seed CoCl2·6H2O 0 μg/L (reference)
[14] = seed CoCl2·6H2O 2.6 μg/L vs 0 μg/L
[15] = seed CoCl2·6H2O 5.2 μg/L vs 0 μg/L
[16] = seed CoCl2·6H2O 13 μg/L vs 0 μg/L
[17] = seed CoCl2·6H2O 26 μg/L vs 0 μg/L
[18] = seed CoCl2·6H2O 52 μg/L vs 0 μg/L
[19] = seed CoCl2·6H2O 104 μg/L vs 0 μg/L
[20] = seed CoCl2·6H2O 208 μg/L vs 0 μg/L
[21] = seed CoCl2·6H2O 416 μg/L vs 0 μg/L
[22] = CoCl2·6H2O seed 0 / production 52 μg/L vs no cobalt
[23] = CoCl2·6H2O seed 208 μg/L / production 52 μg/L vs no cobalt
[24] = Ex.2, cobalt in both seed (208 μg/L) and production (52 μg/L) media vs media without cobalt
[25] = Ex.2, cobalt in seed and production media vs cobalt in production medium only

SMILES	% Increase (+) or % decrease (−) of maximum titer [1]	% Increase (+) or % decrease (−) of maximum titer [2]	% Increase (+) or % decrease (−) of maximum titer [3]	% Increase (+) or % decrease (−) of max titer [4]	% Increase (+) or % decrease (−) of max titer [5]	% Increase (+) or % decrease (−) of max titer [6]	% Increase (+) or % decrease (−) of max titer [7]	% Increase (+) or % decrease (−) of max titer [8]	% Increase (+) or % decrease (−) of max titer [9]	% Increase (+) or % decrease (−) of max titer [10]	% Increase (+) or % decrease (−) of max titer [11]	% Increase (+) or % decrease (−) of max titer [12]	% increase/decrease of titer [13]	% increase/decrease of titer [14]	% increase/decrease of titer [15]	% increase/decrease of titer [16]	% increase/decrease of titer [17]	% increase/decrease of titer [18]	% increase/decrease of titer [19]	% increase/decrease of titer [20]	also measured
CC[C@H]1C(=O)N[C@@]2([C@@H](O)[C@@H]3C=CCCC3)C(=O)O[C@@]12C [NPI-0047, Salinosporamide B]	−65.9%	−67.4%	−71.3%	−18.6%	−41.2%	−38.2%	−52.0%	−63.7%	−69.6%	−65.7%	−69.6%	−73.5%	0.0%	5.9%	2.0%	−17.2%	−2.3%	−21.6%	−9.2%	−11.9%	reduction of concentration in the fermentation (Ex.14, 0.22 μM vitamin B12 added to production medium (Instant Ocean based)): 74%; reduction of production (Ex.1, 52 μg/L cobalt concentration in production medium vs control): 69.6%; decrease in production (Ex.1, 104 μg/L CoCl2·6H2O added to production medium vs none): 66%; relative % change (of % relative to Sal A) [13]: 0.0%; relative % change (of % relative to Sal A) [14]: 4.2%; relative % change (of % relative to Sal A) [15]: −2.7%; relative % change (of % relative to Sal A) [16]: −20.2%; relative % change (of % relative to Sal A) [17]: −28.4%; relative % change (of % relative to Sal A) [18]: −36.1%; relative % change (of % relative to Sal A) [19]: −29.9%; relative % change (of % relative to Sal A) [20]: −41.3%; % increase/decrease of titer [21]: −10.4%; relative % change (of % relative to Sal A) [21]: −21.5%; % Increase (+) or % decrease (−) of average max titer [22]: −71.7%; % Increase (+) or % decrease (−) of average max titer [23]: −78.0%; reduction of production by cobalt (Ex.21, NPS21184, CoCl2·6H2O 208 μg/L seed, 52 μg/L production vs no cobalt): 91%; relative decrease in production (relative to Salinosporamide A) (Ex.2): 41.3%; reduction of production [24]: 78.0%; reduction of production [25]: 22.2%
C[C@@]12OC(=O)[C@]1([C@@H](O)[C@@H]1C=CCCC1)NC(=O)[C@H]2CCCl [NPI-2065]	−21.0%	−12.2%	−30.8%	−7.6%	−1.5%	−6.1%	−1.5%	+3.0%	−4.6%	−1.5%	−6.1%	−15.2%	0.0%	1.7%	4.2%	5.9%	23.1%	17.7%	15.5%	19.7%	reduction of concentration in the fermentation (Ex.14, vitamin B12 in Instant Ocean based medium): 30%; reduction of concentration in the fermentation (Ex.15, Vitamin B12 or CoCl2·6H2O at 0.22 μM in salt formulation based medium): no reduction; maximum inhibition of production (Ex.1, 416 μg/L, highest cobalt concentration tested in production medium): 15%; inhibition of production (Ex.1, 10.4 mg/L CoCl2·6H2O in production medium vs none): 30.8%; relative % change (of % relative to Sal A) [13]: 0.0%; relative % change (of % relative to Sal A) [14]: 0.0%; relative % change (of % relative to Sal A) [15]: −0.5%; relative % change (of % relative to Sal A) [16]: 3.5%; relative % change (of % relative to Sal A) [17]: 3.5%; relative % change (of % relative to Sal A) [18]: 7.9%; relative % change (of % relative to Sal A) [19]: −0.5%; relative % change (of % relative to Sal A) [20]: −1.4%; % increase/decrease of titer [21]: 6.2%; relative % change (of % relative to Sal A) [21]: −3%; % Increase (+) or % decrease (−) of average max titer [22]: −37.2%; % Increase (+) or % decrease (−) of average max titer [23]: −44.9%; relative decrease in production (relative to Salinosporamide A) (Ex.2): 1.4%; reduction of production [24]: 44.9%; reduction of production [25]: 12.2%
C[C@@]12OC(=O)[C@]1([C@@H](O)[C@@H]1C=CCCC1)NC(=O)[C@@H]2CCCl [Salinosporamide A]	1.5%	2.2%	−1.4%	+1.1%	−8.9%	+1.2%	−0.3%	−4.0%	−4.5%	−3.0%	+0.2%	−8.5%	0.0%	1.7%	4.7%	2.5%	20.3%	10.7%	15.9%	20.8%	maximum production as % of the high sodium medium (Ex.11, low sodium medium (9.3 mM sodium, SHY.KCD) vs high sodium medium (413 mM sodium, SHY.B4C)): about 75%; % increase/decrease of titer [21]: 9.2%; % Increase (+) or % decrease (−) of average max titer [22]: +10.1%; % Increase (+) or % decrease (−) of average max titer [23]: 33.9%; % Increase (+) or % decrease (−) of average max titer (CoCl2·6H2O seed 208 μg/L / production 52 μg/L vs no cobalt, listed as SALINOSPORAMIDE A): +33.9%; concentration as % of the saline fermentation condition (Ex.23, low chloride medium (LoCl.PD) vs saline medium): about 35%; increase of production [25]: 21.6%
